Test: Phase I safety and tolerability (DLTs, adverse events, laboratory, ECG)
Assay type: in vivo
Method: This study employed a standard 3 + 3 dose escalation design with a starting dose of 25 mg QD. […] Dose escalation decisions took into account all available data from evaluable subjects as well as PK and the safety profile of prior dose cohorts. […] There was a minimum 5-day stagger between dosing of the first and second subjects in each dose cohort. Dose escalation decisions were made by a data review committee (DRC) composed of, at minimum, the medical monitor, at least one principal investigator, and a sponsor representative, per the study DRC Plan. Dose escalation could continue until 2 or more subjects in the same dose cohort experienced a dose-limiting toxicity (DLT). DLTs were defined as Grade 3 or 4 adverse drug reactions (ADRs), with grades as defined in the National Cancer Institute Common Toxicity Criteria for Adverse Events (NCI-CTCAE) version 5.0. […] The MTD was defined as the highest dose at which no more than 1 of 6 subjects experienced a DLT during cycle 1 of the study drug. The MTD would have been exceeded if 2 or more subjects in a dose cohort of up to 6 subjects experienced a DLT. Subjects could continue treatment until disease progression, unacceptable toxicity, death, withdrawal of consent, or loss to follow-up.
Before enrolment in the study, all patients received a detailed medical history and physical examination. Clinical laboratory evaluations included clinical chemistry, complete blood count, urinalysis, coagulation factors, and a lipid panel. Other safety assessments included vital signs, physical examination, electrocardiogram, and echocardiogram with multigated acquisition (ECHO/MUGA). Safety assessments were performed on days 1, 8, 15, and 21 of cycle 1, and on day 1 of cycles 2 to 6.

[1] = Grade 1, Overall Study (N = 35)
[2] = Grade 2, Overall Study (N = 35)

Structure (SMILES): Nc1ncc(-c2cnn(C3CCNCC3)c2)cc1-c1nnc(CC2CC2)o1 [SLC-391, 3-(5-[cyclopropylmethyl]-1,3,4-oxadiazol-2-yl)-5-(1-[piperidin-4-yl]-1H-pyrazol-4-yl)-pyridin-2-amine]
- TEAE: Abdominal distension [1]: 4 (11.4) n (%)
- TEAE: Abdominal pain [1]: 4 (11.4) n (%)
- TEAE: Back pain [1]: 1 (2.9) n (%)
- TEAE: Blood and lymphatic system disorders [1]: 1 (2.9) n (%)
- TEAE: Chills [1]: 6 (17.1) n (%)
- TEAE: Constipation [1]: 10 (28.6) n (%)
- TEAE: Cough [1]: 6 (17.1) n (%)
- TEAE: Decreased appetite [1]: 7 (20.0) n (%)
- TEAE: Diarrhoea [1]: 14 (40.0) n (%)
- TEAE: Dizziness [1]: 4 (11.4) n (%)
- TEAE: Dysgeusia [1]: 1 (2.9) n (%)
- TEAE: Dyspnoea [1]: 2 (5.7) n (%)
- TEAE: Fatigue [1]: 10 (28.6) n (%)
- TEAE: Gastrointestinal disorders [1]: 15 (42.9) n (%)
- TEAE: General disorders and administration site conditions [1]: 12 (34.3) n (%)
- TEAE: Haematuria [1]: 4 (11.4) n (%)
- TEAE: Headache [1]: 5 (14.3) n (%)
- TEAE: Infections and infestations [1]: 1 (2.9) n (%)
- TEAE: Investigations [1]: 7 (20.0) n (%)
- TEAE: Metabolism and nutrition disorders [1]: 5 (14.3) n (%)
- TEAE: Musculoskeletal and connective tissue disorders [1]: 7 (20.0) n (%)
- TEAE: Nausea [1]: 15 (42.9) n (%)
- TEAE: Nervous system disorders [1]: 11 (31.4) n (%)
- TEAE: Oedema peripheral [1]: 3 (8.6) n (%)
- TEAE: Psychiatric disorders [1]: 3 (8.6) n (%)
- TEAE: Pyrexia [1]: 4 (11.4) n (%)
- TEAE: Renal and urinary disorders [1]: 3 (8.6) n (%)
- TEAE: Respiratory, thoracic, and mediastinal disorders [1]: 5 (14.3) n (%)
- TEAE: Skin and subcutaneous tissue disorders [1]: 6 (17.1) n (%)
- TEAE: Vomiting [1]: 13 (37.1) n (%)
- TEAE: Weight decreased [1]: 6 (17.1) n (%)
- Any treatment-emergent adverse event (TEAE) (Grade 2, Overall BID (N = 15)): 7 (46.7) n (%)
- TEAE: Abdominal distension (Grade 2, Overall BID (N = 15)): 1 (6.7) n (%)
- TEAE: Abdominal pain (Grade 2, Overall BID (N = 15)): 0 n (%)
- TEAE: Back pain (Grade 2, Overall BID (N = 15)): 2 (13.3) n (%)
- TEAE: Blood and lymphatic system disorders (Grade 2, Overall BID (N = 15)): 0 n (%)
- TEAE: Constipation (Grade 2, Overall BID (N = 15)): 2 (13.3) n (%)
- TEAE: Cough (Grade 2, Overall BID (N = 15)): 1 (6.7) n (%)
- TEAE: Decreased appetite (Grade 2, Overall BID (N = 15)): 4 (26.7) n (%)
- TEAE: Diarrhoea (Grade 2, Overall BID (N = 15)): 2 (13.3) n (%)
- TEAE: Dysgeusia (Grade 2, Overall BID (N = 15)): 2 (13.3) n (%)
- TEAE: Dyspnoea (Grade 2, Overall BID (N = 15)): 5 (33.3) n (%)
- TEAE: Fatigue (Grade 2, Overall BID (N = 15)): 5 (33.3) n (%)
- TEAE: Gastrointestinal disorders (Grade 2, Overall BID (N = 15)): 5 (33.3) n (%)
- TEAE: General disorders and administration site conditions (Grade 2, Overall BID (N = 15)): 6 (40.0) n (%)
- TEAE: Haematuria (Grade 2, Overall BID (N = 15)): 1 (6.7) n (%)
- TEAE: Infections and infestations (Grade 2, Overall BID (N = 15)): 5 (33.3) n (%)
- TEAE: Investigations (Grade 2, Overall BID (N = 15)): 1 (6.7) n (%)
- TEAE: Metabolism and nutrition disorders (Grade 2, Overall BID (N = 15)): 5 (33.3) n (%)
- TEAE: Musculoskeletal and connective tissue disorders (Grade 2, Overall BID (N = 15)): 3 (20.0) n (%)
- TEAE: Nausea (Grade 2, Overall BID (N = 15)): 4 (26.7) n (%)
- TEAE: Nervous system disorders (Grade 2, Overall BID (N = 15)): 2 (13.3) n (%)
- TEAE: Oedema peripheral (Grade 2, Overall BID (N = 15)): 1 (6.7) n (%)
- TEAE: Psychiatric disorders (Grade 2, Overall BID (N = 15)): 2 (13.3) n (%)
- TEAE: Pyrexia (Grade 2, Overall BID (N = 15)): 0 n (%)
- TEAE: Renal and urinary disorders (Grade 2, Overall BID (N = 15)): 1 (6.7) n (%)
- TEAE: Respiratory, thoracic, and mediastinal disorders (Grade 2, Overall BID (N = 15)): 6 (40.0) n (%)
- TEAE: Skin and subcutaneous tissue disorders (Grade 2, Overall BID (N = 15)): 0 n (%)
- TEAE: Urinary tract infection (Grade 2, Overall BID (N = 15)): 3 (20.0) n (%)
- TEAE: Vascular disorders (Grade 2, Overall BID (N = 15)): 1 (6.7) n (%)
- TEAE: Vomiting (Grade 2, Overall BID (N = 15)): 1 (6.7) n (%)
- Any treatment-emergent adverse event (TEAE) (Grade 2, Overall QD (N = 20)): 12 (60.0) n (%)
- TEAE: Abdominal distension (Grade 2, Overall QD (N = 20)): 1 (5.0) n (%)
- TEAE: Abdominal pain (Grade 2, Overall QD (N = 20)): 1 (5.0) n (%)
- TEAE: Back pain (Grade 2, Overall QD (N = 20)): 1 (5.0) n (%)
- TEAE: Blood and lymphatic system disorders (Grade 2, Overall QD (N = 20)): 1 (5.0) n (%)
- TEAE: Constipation (Grade 2, Overall QD (N = 20)): 2 (10.0) n (%)
- TEAE: Cough (Grade 2, Overall QD (N = 20)): 0 n (%)
- TEAE: Decreased appetite (Grade 2, Overall QD (N = 20)): 1 (5.0) n (%)
- TEAE: Diarrhoea (Grade 2, Overall QD (N = 20)): 3 (15.0) n (%)
- TEAE: Dysgeusia (Grade 2, Overall QD (N = 20)): 1 (5.0) n (%)
- TEAE: Dyspnoea (Grade 2, Overall QD (N = 20)): 4 (20.0) n (%)
- TEAE: Fatigue (Grade 2, Overall QD (N = 20)): 6 (30.0) n (%)
- TEAE: Gastrointestinal disorders (Grade 2, Overall QD (N = 20)): 6 (30.0) n (%)
- TEAE: General disorders and administration site conditions (Grade 2, Overall QD (N = 20)): 8 (40.0) n (%)
- TEAE: Haematuria (Grade 2, Overall QD (N = 20)): 0 n (%)
- TEAE: Infections and infestations (Grade 2, Overall QD (N = 20)): 3 (15.0) n (%)
- TEAE: Investigations (Grade 2, Overall QD (N = 20)): 0 n (%)
- TEAE: Metabolism and nutrition disorders (Grade 2, Overall QD (N = 20)): 2 (10.0) n (%)
- TEAE: Musculoskeletal and connective tissue disorders (Grade 2, Overall QD (N = 20)): 2 (10.0) n (%)
- TEAE: Nausea (Grade 2, Overall QD (N = 20)): 4 (20.0) n (%)
- TEAE: Nervous system disorders (Grade 2, Overall QD (N = 20)): 2 (10.0) n (%)
- TEAE: Oedema peripheral (Grade 2, Overall QD (N = 20)): 0 n (%)
- TEAE: Psychiatric disorders (Grade 2, Overall QD (N = 20)): 0 n (%)
- TEAE: Pyrexia (Grade 2, Overall QD (N = 20)): 1 (5.0) n (%)
- TEAE: Renal and urinary disorders (Grade 2, Overall QD (N = 20)): 1 (5.0) n (%)
- TEAE: Respiratory, thoracic, and mediastinal disorders (Grade 2, Overall QD (N = 20)): 6 (30.0) n (%)
- TEAE: Skin and subcutaneous tissue disorders (Grade 2, Overall QD (N = 20)): 3 (15.0) n (%)
- TEAE: Urinary tract infection (Grade 2, Overall QD (N = 20)): 1 (5.0) n (%)
- TEAE: Vascular disorders (Grade 2, Overall QD (N = 20)): 2 (10.0) n (%)
- TEAE: Vomiting (Grade 2, Overall QD (N = 20)): 2 (10.0) n (%)
- Any treatment-emergent adverse event (TEAE) [2]: 19 (54.3) n (%)
- TEAE: Abdominal distension [2]: 2 (5.7) n (%)
- TEAE: Abdominal pain [2]: 1 (2.9) n (%)
- TEAE: Back pain [2]: 3 (8.6) n (%)
- TEAE: Blood and lymphatic system disorders [2]: 1 (2.9) n (%)
- TEAE: Constipation [2]: 4 (11.4) n (%)
- TEAE: Cough [2]: 1 (2.9) n (%)
- TEAE: Decreased appetite [2]: 5 (14.3) n (%)
- TEAE: Diarrhoea [2]: 5 (14.3) n (%)
- TEAE: Dysgeusia [2]: 3 (8.6) n (%)
- TEAE: Dyspnoea [2]: 9 (25.7) n (%)
- TEAE: Fatigue [2]: 11 (31.4) n (%)
- TEAE: Gastrointestinal disorders [2]: 11 (31.4) n (%)
- TEAE: General disorders and administration site conditions [2]: 14 (40.0) n (%)
- TEAE: Haematuria [2]: 1 (2.9) n (%)
- TEAE: Infections and infestations [2]: 8 (22.9) n (%)
- TEAE: Investigations [2]: 1 (2.9) n (%)
- TEAE: Metabolism and nutrition disorders [2]: 7 (20.0) n (%)
- TEAE: Musculoskeletal and connective tissue disorders [2]: 5 (14.3) n (%)
- TEAE: Nausea [2]: 8 (22.9) n (%)
- TEAE: Nervous system disorders [2]: 4 (11.4) n (%)
- TEAE: Oedema peripheral [2]: 1 (2.9) n (%)
- TEAE: Psychiatric disorders [2]: 2 (5.7) n (%)
- TEAE: Pyrexia [2]: 1 (2.9) n (%)
- TEAE: Renal and urinary disorders [2]: 2 (5.7) n (%)
- TEAE: Respiratory, thoracic, and mediastinal disorders [2]: 12 (34.3) n (%)
- TEAE: Skin and subcutaneous tissue disorders [2]: 3 (8.6) n (%)
- TEAE: Urinary tract infection [2]: 4 (11.4) n (%)
- TEAE: Vascular disorders [2]: 3 (8.6) n (%)
- TEAE: Vomiting [2]: 3 (8.6) n (%)
- Any treatment-emergent adverse event (TEAE) (Grade 3, Overall BID (N = 15)): 6 (40.0) n (%)
- TEAE: Blood and lymphatic system disorders (Grade 3, Overall BID (N = 15)): 1 (6.7) n (%)
- TEAE: Diarrhoea (Grade 3, Overall BID (N = 15)): 1 (6.7) n (%)
- TEAE: Dyspnoea (Grade 3, Overall BID (N = 15)): 0 n (%)
- TEAE: Fatigue (Grade 3, Overall BID (N = 15)): 1 (6.7) n (%)
- TEAE: Gastrointestinal disorders (Grade 3, Overall BID (N = 15)): 1 (6.7) n (%)
- TEAE: General disorders and administration site conditions (Grade 3, Overall BID (N = 15)): 1 (6.7) n (%)
- TEAE: Infections and infestations (Grade 3, Overall BID (N = 15)): 1 (6.7) n (%)
